Laboratory results as given in ChEMBL document CHEMBL1201862, “PubChem BioAssay data set” (2004).
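Each compound was tested at five concentrations against cells in 96-well plates for 48 hours. GI50 = concentration required for 50% inhibition of growth.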 Calls of active or inactive are those of the source. Cut-off read from the data, not from the text of the source: active = GI50 up to about 1.1 µM and inactive = higher.

What was measured:
Experiment in all cases: growth of human tumour cells (NCI), 48 h
[1] = test system: 786-0
[2] = test system: A549
[3] = test system: CAKI-1
[4] = test system: EKVX
[5] = test system: HCC 2998
[6] = test system: HL-60
[7] = test system: OVCAR-4
[8] = test system: SK-MEL-28
[9] = test system: SW-620
[10] = test system: U-251
[11] = test system: UACC-257
[12] = test system: BT-549
[13] = test system: COLO 205
[14] = test system: Hs-578T
[15] = test system: LOX IMVI
[16] = test system: NCI/ADR-RES
[17] = test system: RXF 393
[18] = test system: T47D
[19] = test system: MDA-MB-231

Structure (SMILES)	GI50 [1]	GI50 [2]	GI50 [3]	GI50 [4]	GI50 [5]	GI50 [6]	GI50 [7]	GI50 [8]	GI50 [9]	GI50 [10]	GI50 [11]	GI50 [12]	GI50 [13]	GI50 [14]	GI50 [15]	GI50 [16]	GI50 [17]	GI50 [18]	GI50 [19]
O=C(O)c1cc(=O)c2cc(C(=O)c3cccs3)c(Cl)c(Cl)c2o1	> 100 µM (inactive)	> 100 µM (inactive)	> 100 µM (inactive)	> 100 µM (inactive)	> 100 µM (inactive)	> 100 µM (inactive)	> 100 µM (inactive)	> 100 µM (inactive)	> 100 µM (inactive)	> 100 µM (inactive)	> 100 µM (inactive)								
C/C=C1\CNC1C(=O)O (configuration not stated)	> 100 µM (inactive)	> 100 µM (inactive)	> 100 µM (inactive)	> 100 µM (inactive)	> 100 µM (inactive)	> 100 µM (inactive)	> 100 µM (inactive)	> 100 µM (inactive)	> 100 µM (inactive)		> 100 µM (inactive)	> 100 µM (inactive)	> 100 µM (inactive)	> 100 µM (inactive)	> 100 µM (inactive)	> 100 µM (inactive)			
C=C[C@@H]1C(CO)=CCC2[C@H]1CCC1C(C)(C)C(=O)CC[C@]21C (some centres not stated)	> 100 µM (inactive)	> 100 µM (inactive)	> 100 µM (inactive)	> 100 µM (inactive)	> 100 µM (inactive)	59.3 µM (inactive)	> 100 µM (inactive)	> 100 µM (inactive)	> 100 µM (inactive)	> 100 µM (inactive)	> 100 µM (inactive)		> 100 µM (inactive)	> 100 µM (inactive)	> 100 µM (inactive)	> 100 µM (inactive)	> 100 µM (inactive)	> 100 µM (inactive)	
CCOC(=O)C1Cc2c(cc3c4c(cccc24)N(C(C)=O)C3)N(C)C1 (configuration not stated)	4.03 µM (inactive)	> 100 µM (inactive)	7.71 µM (inactive)	9.59 µM (inactive)	> 100 µM (inactive)	11.3 µM (inactive)	84.9 µM (inactive)	> 100 µM (inactive)	4.86 µM (inactive)	4.93 µM (inactive)	39 µM (inactive)		> 100 µM (inactive)	2.49 µM (inactive)	6.35 µM (inactive)	1.64 µM (inactive)	4.13 µM (inactive)	5.58 µM (inactive)	1.4 µM (inactive)
COc1cc(C2c3cc4c(cc3OC(O)C2C)OCO4)cc(OC)c1OC (configuration not stated)	0.507 µM (active)	0.381 µM (active)	0.612 µM (active)	1.53 µM (inactive)	0.61 µM (active)	0.172 µM (active)	2.8 µM (inactive)	0.863 µM (active)	0.292 µM (active)	0.33 µM (active)	9.68 µM (inactive)	1.14 µM (inactive)	0.315 µM (active)	0.31 µM (active)	0.69 µM (active)	0.214 µM (active)	0.244 µM (active)		0.532 µM (active)
Nc1ccc2c(c1)N(C(=O)CCCC(=O)N1CC(CCl)c3ccc(N)cc31)CC2CCl (configuration not stated)	0.169 µM (active)	0.472 µM (active)	0.141 µM (active)	1.51 µM (inactive)	1.45 µM (inactive)	0.0199 µM (active)	0.867 µM (active)	1.23 µM (inactive)	0.977 µM (active)	0.513 µM (active)	1.26 µM (inactive)	0.719 µM (active)	0.735 µM (active)	0.918 µM (active)	0.267 µM (active)	1.15 µM (inactive)	0.195 µM (active)		1.43 µM (inactive)
O=C1Nc2c(Cl)cc(Cl)cc2/C1=N/N=C/c1ccco1	38.8 µM (inactive)	33.4 µM (inactive)	24.3 µM (inactive)	7.6 µM (inactive)	37.3 µM (inactive)	29.7 µM (inactive)	49.3 µM (inactive)	33 µM (inactive)	37 µM (inactive)	27.7 µM (inactive)	44 µM (inactive)	22.2 µM (inactive)	22.4 µM (inactive)	32.7 µM (inactive)	17.8 µM (inactive)	21.4 µM (inactive)	32.1 µM (inactive)		20.3 µM (inactive)
NC(=O)N/N=C\CC(O)(C(F)(F)Cl)C(F)(F)Cl	> 10 µM (inactive)	> 10 µM (inactive)	> 10 µM (inactive)	> 10 µM (inactive)	> 10 µM (inactive)	> 10 µM (inactive)	> 10 µM (inactive)	> 10 µM (inactive)	> 10 µM (inactive)	> 10 µM (inactive)	> 10 µM (inactive)		> 10 µM (inactive)	> 10 µM (inactive)	> 10 µM (inactive)	> 10 µM (inactive)	> 10 µM (inactive)	> 10 µM (inactive)	> 10 µM (inactive)
CC1(C)[N+]([O-])=[N+]([O-])C1(Br)c1ccccc1 (configuration not stated)	68.9 µM (inactive)	> 100 µM (inactive)	> 100 µM (inactive)	> 100 µM (inactive)	> 100 µM (inactive)	33 µM (inactive)	82.2 µM (inactive)	> 100 µM (inactive)	> 100 µM (inactive)	> 100 µM (inactive)	54.8 µM (inactive)		> 100 µM (inactive)	> 100 µM (inactive)	48.1 µM (inactive)	43.9 µM (inactive)	25.8 µM (inactive)	> 100 µM (inactive)	59.6 µM (inactive)
O=C(Cc1ccccc1)NN1C(=O)/C(=C\c2ccc([N+](=O)[O-])cc2)S/C1=N\c1ccccc1	> 100 µM (inactive)	> 100 µM (inactive)		> 100 µM (inactive)	> 100 µM (inactive)		> 100 µM (inactive)	> 100 µM (inactive)	> 100 µM (inactive)	> 100 µM (inactive)	> 100 µM (inactive)		> 100 µM (inactive)	> 100 µM (inactive)		> 100 µM (inactive)	> 100 µM (inactive)	62.1 µM (inactive)	> 100 µM (inactive)
CC(C)CC(N)C(=O)OCN1C(=O)C2C3C=CC(C2C1=O)C1C2C(=O)N(COC(=O)C(N)CC(C)C)C(=O)C2C31 (configuration not stated)	> 100 µM (inactive)	> 100 µM (inactive)	> 100 µM (inactive)	> 100 µM (inactive)	> 100 µM (inactive)	30.4 µM (inactive)	> 100 µM (inactive)	> 100 µM (inactive)	> 53.6 µM (inactive)	> 100 µM (inactive)	> 100 µM (inactive)		> 92.3 µM (inactive)		> 41.5 µM (inactive)		> 100 µM (inactive)		
C=CCCCN1C(=O)C2C3c4ccccc4C(C=O)(c4ccccc43)C2C1=O (configuration not stated)	13.3 µM (inactive)	15.2 µM (inactive)	16 µM (inactive)	6.03 µM (inactive)	14.7 µM (inactive)	9.89 µM (inactive)	11.4 µM (inactive)	15.9 µM (inactive)	13 µM (inactive)	11.2 µM (inactive)	13 µM (inactive)		12 µM (inactive)		6.07 µM (inactive)	10.9 µM (inactive)		8.91 µM (inactive)	9.42 µM (inactive)
Oc1cn(-c2ccc(Cl)cc2)nc1-c1nnc(Nc2ccccc2)o1	16.6 µM (inactive)	20.4 µM (inactive)	32.3 µM (inactive)	23.9 µM (inactive)			34.8 µM (inactive)	17.7 µM (inactive)	19.1 µM (inactive)	17.5 µM (inactive)	21.3 µM (inactive)		21.4 µM (inactive)	24.1 µM (inactive)		14.9 µM (inactive)	16 µM (inactive)	23 µM (inactive)	12.4 µM (inactive)
COC1(c2ccc(Cl)cc2)SC=C(C)n2c1noc2=O (configuration not stated)	> 100 µM (inactive)	> 100 µM (inactive)	> 100 µM (inactive)	> 100 µM (inactive)	> 100 µM (inactive)	> 100 µM (inactive)	63.8 µM (inactive)	> 100 µM (inactive)	> 100 µM (inactive)	> 100 µM (inactive)	> 100 µM (inactive)	> 100 µM (inactive)	> 100 µM (inactive)	> 100 µM (inactive)	> 100 µM (inactive)	10.5 µM (inactive)	> 100 µM (inactive)		
O=C(O)c1cc(/C=C/c2cc(O)ccc2O)ccc1O	> 10 µM (inactive)	> 10 µM (inactive)		> 10 µM (inactive)	> 10 µM (inactive)	> 10 µM (inactive)	> 10 µM (inactive)		> 10 µM (inactive)	> 10 µM (inactive)	> 10 µM (inactive)	> 10 µM (inactive)		> 10 µM (inactive)	> 10 µM (inactive)	> 10 µM (inactive)			> 10 µM (inactive)
C=C1C(=O)OC2/C=C(\C)C3OC3/C=C(/C(=O)OC)C(O)C(OC(=O)C3(C)OC3C)C12 (configuration not stated)	1.74 µM (inactive)	15.3 µM (inactive)	1.08 µM (active)	2.58 µM (inactive)	1.9 µM (inactive)		2.88 µM (inactive)	1.52 µM (inactive)	0.959 µM (active)	4.58 µM (inactive)	1.53 µM (inactive)		1.27 µM (inactive)		1.76 µM (inactive)		1.02 µM (active)		
Cc1cccc2c(NCCN(C)C)c3cccc(C(=O)NCCN(C)C)c3nc12	0.0783 µM (active)	0.107 µM (active)	0.187 µM (active)	0.383 µM (active)	< 0.0455 µM (active)	0.24 µM (active)	0.207 µM (active)	0.199 µM (active)	0.0276 µM (active)	0.139 µM (active)	0.693 µM (active)		0.173 µM (active)	0.495 µM (active)		0.446 µM (active)	0.475 µM (active)	1.81 µM (inactive)	0.0904 µM (active)
